pKi: −log10 of the molar value.

The target in series [1] is T1, Orexin receptor type 2 (Rattus norvegicus, UniProt P56719).
T1 sequence (P56719 whole entry): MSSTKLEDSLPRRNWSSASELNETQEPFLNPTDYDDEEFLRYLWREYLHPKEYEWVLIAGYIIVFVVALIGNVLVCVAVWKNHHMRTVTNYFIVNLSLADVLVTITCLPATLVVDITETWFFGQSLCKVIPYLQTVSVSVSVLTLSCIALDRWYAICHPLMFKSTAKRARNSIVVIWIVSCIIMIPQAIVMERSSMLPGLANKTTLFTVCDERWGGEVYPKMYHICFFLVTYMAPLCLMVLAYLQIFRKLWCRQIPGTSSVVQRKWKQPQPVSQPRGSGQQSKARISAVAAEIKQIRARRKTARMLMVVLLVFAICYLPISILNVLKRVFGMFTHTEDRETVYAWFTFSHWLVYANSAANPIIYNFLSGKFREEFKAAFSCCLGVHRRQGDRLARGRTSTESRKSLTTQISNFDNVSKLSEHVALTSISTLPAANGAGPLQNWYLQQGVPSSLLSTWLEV
Description: Antagonist activity at recombinant rat OX2R expressed in CHO cells by FLIPR calcium based functional assay. Format: cell-based.

The target in series [2] is T2, Orexin/Hypocretin receptor type 1 (Homo sapiens, UniProt O43613).
T2 sequence (O43613 whole entry): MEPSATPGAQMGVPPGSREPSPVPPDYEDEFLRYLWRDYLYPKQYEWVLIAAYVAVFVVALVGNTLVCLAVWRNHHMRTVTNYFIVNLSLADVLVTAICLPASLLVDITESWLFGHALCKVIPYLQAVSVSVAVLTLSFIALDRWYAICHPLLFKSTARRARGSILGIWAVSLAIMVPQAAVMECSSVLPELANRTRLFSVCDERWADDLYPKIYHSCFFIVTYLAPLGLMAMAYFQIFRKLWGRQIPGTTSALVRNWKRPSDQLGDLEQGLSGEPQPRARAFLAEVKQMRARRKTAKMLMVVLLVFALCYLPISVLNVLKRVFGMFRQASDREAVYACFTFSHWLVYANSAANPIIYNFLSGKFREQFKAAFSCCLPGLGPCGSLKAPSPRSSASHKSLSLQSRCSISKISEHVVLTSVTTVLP
Description: Displacement of [3H]almorexant from recombinant human OX1R expressed in CHO cells. Format: cell-based.

The target of series [3] is T3, Orexin receptor type 2 (Homo sapiens, UniProt O43614).
T3 sequence (O43614 whole entry): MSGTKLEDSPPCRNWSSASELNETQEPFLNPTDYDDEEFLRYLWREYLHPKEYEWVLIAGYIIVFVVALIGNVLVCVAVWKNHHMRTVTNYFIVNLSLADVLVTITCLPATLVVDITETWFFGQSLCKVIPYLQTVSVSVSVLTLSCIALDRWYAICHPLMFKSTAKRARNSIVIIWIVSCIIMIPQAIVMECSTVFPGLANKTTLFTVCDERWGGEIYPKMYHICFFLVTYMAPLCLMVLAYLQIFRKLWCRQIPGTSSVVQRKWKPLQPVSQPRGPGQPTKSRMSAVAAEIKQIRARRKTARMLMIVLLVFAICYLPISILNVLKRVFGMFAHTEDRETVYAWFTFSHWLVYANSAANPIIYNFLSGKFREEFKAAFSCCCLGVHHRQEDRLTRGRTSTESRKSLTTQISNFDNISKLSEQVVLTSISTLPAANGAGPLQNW
Description: Displacement of [3H]almorexant from recombinant human OX2R expressed in CHO cells. Format: cell-based.

Series [4] is described as follows: Volume of distribution at steady state in CD rat at 1 mg/kg, iv and 3 mg/kg, po. Format: ADME, organism-based. The conditions noted are these: in vivo, read-out: Vdss.
Series [5] in a line: Ratio of drug level in brain to blood in CD rat at 1 mg/kg, iv after 1 hrs. Also on record: dose 1 mg/kg, route intravenous. Format: ADME, organism-based. Particulars: read-out: BBR.
Series [6] deals with Rattus norvegicus. Nature of the series: In vivo antagonist activity at OX1R in CD rat assessed as reduction of OX-A induced grooming dosed orally 3 hrs before OX-A injection measured after 1 hrs. Format: functional, organism-based.
The test system of series [7] is Rattus norvegicus. Description: Hypnotic activity in po dosed CD rat Circadian time model assessed as rapid eye movement sleep administered during active phase measured from starting time CT18. Format: functional, organism-based.
For series [8], the system named is Rattus norvegicus. Description: Hypnotic activity in CD rat Circadian time model assessed as awake period at 30 mg/kg, po administered during active phase measured from starting time CT18 (reference value: 218 +/- 11.32 mins). Format: functional.
In series [9] the test system is Rattus norvegicus. Nature of the series: Hypnotic activity in CD rat Circadian time model assessed as non-rapid eye movement latency period at 10 mg/kg, po administered during active phase measured from starting time CT18 (reference value: 46.1 +/- 10.0 mins). Format: functional.
The test system of series [10] is Rattus norvegicus. Description: Hypnotic activity in CD rat Circadian time model assessed as rapid eye movement latency period at 10 mg/kg, po administered during active phase measured from starting time CT18 (reference value: 146.3 +/- 54.2 mins). Format: functional.
For series [11], the system named is Rattus norvegicus. Nature of the series: Hypnotic activity in CD rat Circadian time model assessed as rapid eye movement latency period at 30 mg/kg, po administered during active phase measured from starting time CT18 (reference value: 146.3 +/- 54.2 mins). Format: functional.
The test system of series [12] is Rattus norvegicus. Nature of the series: Hypnotic activity in po dosed CD rat Circadian time model assessed as non-rapid eye movement latency period during active phase measured from starting time CT18. Format: functional, organism-based.

Consider `Cc1nc(C(=O)N2CCCC[C@H]2CNC(=O)c2cccc3occc23)c(-c2ccc(F)cc2)s1` [SB-649868], for which the figures for the pKi (at Orexin receptor type 2 [1]; in [2]; on Orexin receptor type 2 [3]) were 10.11, 9.12 and 8.89, respectively. Moreover, the Vd in [4] was 1.1 L/kg. The Kp at 1 h in series [5] stood at 0.1. In addition, the Activity result in the series with Rattus norvegicus [6], in the series on Rattus norvegicus [7] and in the series with Rattus norvegicus [12] was “Dose-dependent effect” throughout. The Time in the series on Rattus norvegicus [8] turned out to be 87 min; in the series on Rattus norvegicus [9], 11.6 min; in the series with Rattus norvegicus [10], 26.6 min; in the series with Rattus norvegicus [11] it was 13.8 min.

(Values after ChEMBL document CHEMBL1828583, “Discovery process and pharmacological characterization of a novel dual orexin 1 and orexin 2 receptor antagonist useful for treatment of sleep disorders” (Bioorg Med Chem Lett, 2011).)
